We go through three compounds from ChEMBL document CHEMBL1201862, “PubChem BioAssay data set” (2004).

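1) Cells in 96-well plates. 2) Compound, 48 h, 5 concentrations. 3) Linear interpolation between surrounding doses. 4) Unreached endpoint = highest concentration. At the GI50, growth is halved.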 Activity calls are given as the source filed them. No stated cut-off is given here; in the data, active = GI50 up to about 1.1 µM and inactive = higher.

Common to all, as to test: growth of human tumour cells (NCI), 48 h
Test [1] deals with BT-549.
Test [2] has as its system CAKI-1.
Test [3] has as its system HCC 2998.
In test [4] the test system is HOP-62.
Test [5] deals with HOP-92.
Test [6] has as its system HT-29.
Test [7] deals with LOX IMVI.
The subject of test [8] is Malme-3M.
Test [9] concerns NCI-H460.
For test [10], the system named is NCI-H522.
For test [11], the system named is OVCAR-4.
For test [12], the system named is PC-3.
Test [13] relates to RPMI-8226.
Test [14] deals with SF-268.
Test [15] relates to SK-MEL-2.
For test [16], the system named is SK-OV-3.
The test system of test [17] is SNB-75.
Test [18] has as its system TK-10.
Test [19] relates to UACC-257.
In test [20] the test system is UACC-62.

As for `CCN(CC)CC(O)CNc1ccc(NCC(O)CCl)c2c1C(=O)c1ccccc1C2=O` (stereo not given), the GI50 is 2.22 µM (inactive) in [1]; 8.67 µM (inactive) in [2]; 7.83 µM (inactive) in [3]; 10.9 µM (inactive) in test [4]; 5.58 µM (inactive) in test [5]; 3.31 µM (inactive) in test [6]. Further, the GI50 in [7] was 0.478 µM (active); in [8] it was 13.4 µM (inactive); in [9], 2.78 µM (inactive); in test [10] it was 4.47 µM (inactive); in test [11], 6.52 µM (inactive); in [12], 6.47 µM (inactive). Also, the GI50 is 4.92 µM (inactive) in test [13]; 2.65 µM (inactive) in test [14]; 12.2 µM (inactive) in test [15]; 18.9 µM (inactive) in test [16]; 11 µM (inactive) in test [17]; 12.1 µM (inactive) in [18]. Further, the figures for the GI50 in test [19] and in test [20] were 6.04 µM (inactive) and 14.4 µM (inactive), respectively.

Consider `O=C1C=CC(=O)c2c(O)c(N3CCN(c4ccccn4)CC3)cc(O)c21`, for which the GI50 in test [1] was 10.7 µM (inactive); in test [2], 8 µM (inactive); in [3], 8.73 µM (inactive); in test [4], 21 µM (inactive); in [5], 10.2 µM (inactive); in test [6], 4.3 µM (inactive). In addition, the GI50 in [7] was 3.95 µM (inactive); in [8], 0.553 µM (active); in test [9], 3.24 µM (inactive); in test [10], 5.06 µM (inactive); in [11] it was 11.6 µM (inactive); in test [12] it was 16.2 µM (inactive). Moreover, the GI50 in [13] was 4.68 µM (inactive); in [14], 11.9 µM (inactive); in test [15] it was 5.92 µM (inactive); in test [16], 28.1 µM (inactive); in [17] it was 7.41 µM (inactive); in test [18], 34.7 µM (inactive). In addition, the GI50 is 4.07 µM (inactive) in test [19] and 5.9 µM (inactive) in test [20].

As to `CCOC(=O)/C=C(\C(=O)OCC)n1ccc(=O)[nH]c1=O`, the GI50 was 16.7 µM (inactive) in [1]; 1.91 µM (inactive) in test [2]; 22.4 µM (inactive) in test [3]; 26.9 µM (inactive) in test [4]; 2.55 µM (inactive) in test [5]; 15.2 µM (inactive) in test [6]. Further, the GI50 in [7] is 12.8 µM (inactive); in [8], 10.2 µM (inactive); in test [9] it was 21.7 µM (inactive); in test [10], 0.684 µM (active); in test [11] it was 19.1 µM (inactive); in test [12], 16.9 µM (inactive). Besides, the GI50 in [13] is 13.1 µM (inactive); in test [14], 20 µM (inactive); in test [15], 23.4 µM (inactive); in test [16], 22.4 µM (inactive); in test [17] it was 17.1 µM (inactive); in [18], 13.3 µM (inactive). Moreover, the figures for the GI50 in test [19] and in test [20] were 4.72 µM (inactive) and 16.4 µM (inactive), respectively.
